Results published in the supplement of paper PMC11061612.

Legend:
Test in all cases: Bliss excess, mean over the matrix (fraction); higher = more synergy
[1] = system: BFTC-905 (Bladder Carcinoma)
Method in brief: (§1)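 After 24 hours at 37°C and 5% CO2 in 1536-well plates, cells in DMEM/F12 or RPMI plus 10% FBS received two-drug dose matrices for 72 hours. Viability came from CellTiter-Glo 2.0 luminescence and was scaled as inhibition, anchored at 0 by vehicle wells and at 1 by blank wells. Combination Emax is taken as the second-highest inhibition in the matrix, and Bliss excess as the observed combination effect less EA + EB − EA·EB, with EA and EB the single-agent effects.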

[2] = system: TOV-112D (Ovarian Carcinoma)
Method in brief: as §1

[3] = system: SW1417 (Colorectal Carcinoma)
Method in brief: as §1

[4] = system: P12-ICHIKAWA (T-Lymphoblastic Leukemia)
Method in brief: as §1

[5] = system: KARPAS-45 (T-Lymphoblastic Leukemia)
Method in brief: as §1

[6] = system: KM12 (Colorectal Carcinoma)
Method in brief: as §1

[7] = system: TC-71 (Ewing's Sarcoma)
Method in brief: as §1

[8] = system: CHP-212 (Neuroblastoma)
Method in brief: as §1

[9] = system: PANC-08-13 (Pancreatic Carcinoma)
Method in brief: as §1

[10] = system: NCI-H1792 (Lung Adenocarcinoma)
Method in brief: as §1

[11] = system: EVSA-T (Breast Carcinoma)
Method in brief: as §1

[12] = system: KYSE-180 (Esophageal Squamous Cell Carcinoma)
Method in brief: as §1

[13] = system: WIL2-NS (Non-Cancerous)
Method in brief: as §1

[14] = system: DiFi (Colorectal Carcinoma)
Method in brief: as §1

[15] = system: GR-ST (B-Lymphoblastic Leukemia)
Method in brief: as §1

[16] = system: COLO-678 (Colorectal Carcinoma)
Method in brief: as §1

[17] = system: HL-60 (Acute Myeloid Leukemia)
Method in brief: as §1

[18] = system: MKN28 (Gastric Carcinoma)
Method in brief: as §1

[19] = system: K-562 (Chronic Myelogenous Leukemia)
Method in brief: as §1

[20] = system: MOLT-16 (T-Lymphoblastic Leukemia)
Method in brief: as §1

| SMILES | Bliss excess [1] | Bliss excess [2] | Bliss excess [3] | Bliss excess [4] | Bliss excess [5] | Bliss excess [6] | Bliss excess [7] | Bliss excess [8] | Bliss excess [9] | Bliss excess [10] | Bliss excess [11] | Bliss excess [12] | Bliss excess [13] | Bliss excess [14] | Bliss excess [15] | Bliss excess [16] | Bliss excess [17] | Bliss excess [18] | Bliss excess [19] | Bliss excess [20] |
| --- | --- | --- | --- | --- | --- | --- | --- | --- | --- | --- | --- | --- | --- | --- | --- | --- | --- | --- | --- | --- |
| COc1cc2ncnc(Nc3ccc(F)c(Cl)c3)c2cc1OCCCN1CCOCC1 [Gefitinib] + CC(C)n1c(=O)n(C)c2cnc3cc(F)c(-c4ccc(OCCCN5CCCCC5)nc4)cc3c21 [AZD1390] (first compound max 10 µM, 7x7, partner max 0.3 µM) | -0.0821 | -0.0392 | -0.0456 | -0.0152 | -0.0543 | -0.0406 | -0.0927 | -0.0352 | -0.0511 | -0.0422 | -0.0306 | -0.0621 | -0.0241 | -0.0882 | -0.0303 | -0.111 | -0.0852 | -0.0498 | -0.0304 | -0.0401 |
| CN(C)CCCOc1ccc(-c2ccc3ncc4c(c3c2)n(C2CCOCC2)c(=O)n4C)cn1 [AZD0156] + O=C(c1cc(Cc2n[nH]c(=O)c3ccccc23)ccc1F)N1CCN(C(=O)C2CC2)CC1 [Olaparib] (first compound max 3 µM, partner max 3 µM) | 0.175 | 0.0851 | -0.0287 | 0.191 | 0.0456 | 0.121 | 0.3 | 0.222 | -0.0215 | 0.0848 | 0.092 | 0.0654 | 0.215 | -0.0082 | 0.131 | -0.0152 | 0.141 | -0.0432 | 0.0271 | 0.397 |
| CC1(C)CCC(CN2CCN(c3ccc(C(=O)NS(=O)(=O)c4ccc(NCC5CCOCC5)c([N+](=O)[O-])c4)c(Oc4cnc5[nH]ccc5c4)c3)CC2)=C(c2ccc(Cl)cc2)C1 [Venetoclax] + C1CN(CCC1(C(=O)N[C@@H](CCO)C2=CC=C(C=C2)Cl)N)C3=NC=NC4=C3C=CN4 [Capivasertib] (first compound max 1 µM, 7x7, partner max 3 µM) | -0.0288 | -0.0285 | -0.0744 | 0.0039 | 0.0512 | -0.041 | -0.0684 | -0.0467 | -0.0608 | -0.0549 | -0.0371 | -0.0208 | -0.0145 | -0.022 | -0.0382 | -0.118 | 0.0198 | -0.0455 | -0.0902 | 0.0937 |
| CN(CCO)CC[C@H](CSc1ccccc1)Nc1ccc(S(=O)(=O)NC(=O)c2ccc(N3CCC([C@@H](O)c4ccccc4-c4ccc(Cl)cc4)CC3)cc2)cc1S(=O)(=O)C(F)(F)F [AZD4320] + Cn1cnc2c(F)c(Nc3ccc(Br)cc3Cl)c(C(=O)NOCCO)cc21 [Selumetinib] (first compound max 1 µM, 7x7, partner max 3 µM) | -0.0411 | 0.0107 | 0.056 | 0.0748 | -0.0248 | 0.0423 | 0.0614 | -0.0108 | 0.0195 | 0.0416 | 0.0703 | 0.0148 | 0.0074 | 0.0838 | -0.0417 | 0.0536 | 0.0259 | 0.0272 | 0.0465 | -0.0335 |
| Cc1c2c(nn1C)CSCc1cc(n(C)n1)CSc1cc(c3ccccc3c1)OCCCc1c(C(=O)O)n(C)c3c-2c(Cl)ccc13 [AZD5991] + C[C@@H]1COCCN1C2=NC(=NC(=C2)C3(CC3)[S@](=N)(=O)C)C4=C5C=CNC5=NC=C4 [AZD6738] (first compound max 1 µM, 7x7, partner max 10 µM) | 0.0113 | 0.0477 | -0.0352 | 0.0312 | 0.0077 | 0.0321 | 0.0554 | 0.0122 | 0.0337 | 0.0332 | -0.0015 | 0.0821 | -0.0025 | 0.0302 | -0.129 | -0.0899 | -0.0069 | 0.0118 | -0.0091 | 0.0043 |
| COc1nnc2ccc(N3CCC(c4ccc(OCCN5CCN(C)C(=O)[C@H]5C)cc4)CC3)nn12 [AZD5153] + CC1(C)CCC(CN2CCN(c3ccc(C(=O)NS(=O)(=O)c4ccc(NCC5CCOCC5)c([N+](=O)[O-])c4)c(Oc4cnc5[nH]ccc5c4)c3)CC2)=C(c2ccc(Cl)cc2)C1 [Venetoclax] (first compound max 1 µM, 7x7, partner max 1 µM) | -0.0577 | -0.0474 | -0.0485 | -0.0389 | 0.0433 | -0.0571 | -0.0443 | -0.085 | 0.0065 | -0.0215 | -0.0008 | -0.0193 | -0.0495 | 0.0054 | -0.0399 | -0.121 | -0.0379 | -0.0251 | -0.0494 | 0.0309 |
| CC1(C)CCC(CN2CCN(c3ccc(C(=O)NS(=O)(=O)c4ccc(NCC5CCOCC5)c([N+](=O)[O-])c4)c(Oc4cnc5[nH]ccc5c4)c3)CC2)=C(c2ccc(Cl)cc2)C1 [Venetoclax] + COc1cc(Nc2ncc3c(n2)-c2ccc(Cl)cc2C(c2c(F)cccc2OC)=NC3)ccc1C(=O)O [Alisertib] (first compound max 1 µM, 7x7, partner max 10 µM) | -0.0387 | 0.116 | -0.0705 | -0.0398 | 0.0544 | -0.0669 | 0.0868 | -0.0654 | -0.032 | 0.0603 | 0.0434 | 0.0114 | -0.0522 | 0.0661 | 0.0444 | -0.0712 | 0.0894 | -0.0541 | 0.0498 | 0.0623 |
| COc1nnc2ccc(N3CCC(c4ccc(OCCN5CCN(C)C(=O)[C@H]5C)cc4)CC3)nn12 [AZD5153] + CCN(CCO)CCCOc1ccc2c(Nc3cc(CC(=O)Nc4cccc(F)c4)[nH]n3)ncnc2c1 [AZD2811] (first compound max 1 µM, 7x7, partner max 1 µM) | -0.0452 | -0.0297 | -0.0301 | 0.0024 | -0.0171 | -0.0112 | -0.0316 | -0.027 | -0.0175 | -0.083 | 0.0047 | 0.0356 | -0.0421 | -0.068 | -0.0238 | -0.0409 | -0.0076 | -0.0244 | -0.0153 | -0.0173 |
| CC(=O)c1c(C)c2cnc(Nc3ccc(N4CCNCC4)cn3)nc2n(C2CCCC2)c1=O [Palbociclib] + CC1(C)CCC(CN2CCN(c3ccc(C(=O)NS(=O)(=O)c4ccc(NCC5CCOCC5)c([N+](=O)[O-])c4)c(Oc4cnc5[nH]ccc5c4)c3)CC2)=C(c2ccc(Cl)cc2)C1 [Venetoclax] (first compound max 10 µM, 7x7, partner max 1 µM) | -0.046 | 0.0283 | -0.0267 | -0.0157 | 0.0598 | -0.0041 | -0.0129 | 0.023 | -0.0361 | -0.0103 | 0.0048 | -0.012 | 0.0278 | 0.0239 | 0.0074 | 0.0158 | -0.0215 | -0.0461 | -0.0313 | 0.0452 |
| Cc1c2c(nn1C)CSCc1cc(n(C)n1)CSc1cc(c3ccccc3c1)OCCCc1c(C(=O)O)n(C)c3c-2c(Cl)ccc13 [AZD5991] + Cc1cc2ncnn2cc1Nc1ncc2c(n1)n(C1CCOCC1)c(=O)n2C [AZD7648] (first compound max 1 µM, 7x7, partner max 10 µM) | -0.0282 | -0.0214 | 0.0054 | -0.0167 | -0.0163 | -0.0073 | -0.0745 | 0.0203 | 0.0012 | -0.0248 | -0.0156 | -0.0126 | 0.0039 | -0.0448 | -0.149 | -0.0416 | 0.0014 | 0.0046 | 0.0044 | -0.023 |
| CN(CCO)CC[C@H](CSc1ccccc1)Nc1ccc(S(=O)(=O)NC(=O)c2ccc(N3CCC([C@@H](O)c4ccccc4-c4ccc(Cl)cc4)CC3)cc2)cc1S(=O)(=O)C(F)(F)F [AZD4320] + CCN(CCO)CCCOc1ccc2c(Nc3cc(CC(=O)Nc4cccc(F)c4)[nH]n3)ncnc2c1 [AZD2811] (first compound max 1 µM, 7x7, partner max 1 µM) | 0.121 | 0.0419 | -0.0306 | 0.0103 | -0.0137 | 0.0173 | -0.0299 | 0.0016 | -0.0166 | -0.0267 | 0.156 | 0.0189 | 0.0006 | -0.013 | -0.0272 | -0.0247 | -0.0281 | -0.0107 | 0.0055 | -0.0049 |
| COc1nnc2ccc(N3CCC(c4ccc(OCCN5CCN(C)C(=O)[C@H]5C)cc4)CC3)nn12 [AZD5153] + C[C@@H]1COCCN1C2=NC(=NC(=C2)C3(CC3)[S@](=N)(=O)C)C4=C5C=CNC5=NC=C4 [AZD6738] (first compound max 1 µM, 7x7, partner max 10 µM) | -0.05 | 0.0306 | 0.0052 | 0.055 | -0.0191 | 0.0526 | 0.0254 | -0.0197 | 0.035 | -0.0628 | 0.0026 | 0.0656 | -0.0766 | 0.0524 | -0.0956 | 0.0502 | -0.0003 | -0.0072 | -0.0303 | -0.0105 |
